pIC50: −log10 of the molar value.
Assays:
[1] = target: T1, pseudo-kinase domain (JH2, amino-acids 536-812 with 3 surface mutations W659A, W777A, F794H) of human Wild Type JAK2 (Homo sapiens, UniProt O60674, F794H/W659A/W777A); assay: JAK2 LanthaScreen JH2-WT binding assay; details: 50 nM tracer, 1 hour at 25° C., read-out: JH2 BIND WT IC50
T1 construct: pseudo-kinase domain (JH2, amino-acids 536-812 with 3 surface mutations W659A, W777A, F794H); His (C); Avi (biotinylated) (C); purchased BPS Bioscience 79463; host or cells: baculovirus expression system
Procedure: Example B. JAK2 LanthaScreen JH2-WT Binding Assay
(§1) JAK2 JH2-WT binding assay utilizes pseudo-kinase domain (JH2, amino-acids 536-812 with 3 surface mutations W659A, W777A, F794H) of human Wild Type JAK2 expressed as C-terminal His-Avi-tagged, biotinylated protein in a baculovirus expression system (BPS Bioscience, Catalog #79463). The assay was conducted in black 384-well polystyrene plates in a final reaction volume of 20 μL. JAK2 JH2-WT (0.145 nM) was incubated with compounds (100 nL serially diluted in DMSO) in the presence of 50 nM Fluorescent JAK2-JH2 Tracer (MedChem Express Catalog #HY-102055) and 0.25 nM Streptavidin-Tb cryptate (Cisbio Part #610SATLB) in assay buffer (50 mM Tris, pH=7.5, 10 mM MgCl2, 0.01% Brij-35, 0.1% BSA, 1 mM EGTA, 5% Glycerol and 5 mM DTT). Non-specific binding was accessed in the presence of 2 mM ATP. After incubation for 1 hour at 25° C., LanthaScreen signals were read on a PHERAstar FS plate reader (BMG LABTECH). Data was analyzed with IDBS XLfit and GraphPad Prism 5.0 software using a four parameter dose response curve to determine IC50 for each compound.

[2] = target: T2, catalytic domain (JH1, amino acids 826-1132) of human JAK2 (Homo sapiens, UniProt O60674); assay: JAK2 LanthaScreen JH1 binding assay; details: 50 nM tracer, 2 hours at 25° C., read-out: JH1 BIND IC50
T2 construct: catalytic domain (JH1, amino acids 826-1132) of human JAK2; FLAG (N); purchased Carna Biosciences 08-445-20N; host or cells: baculovirus expression system
Procedure: Example A. JAK2 LanthaScreen […] Binding Assay
JAK2 JH1 binding assay utilizes catalytic domain (JH1, amino acids 826-1132) of human JAK2 expressed as N-terminal FLAG-tagged, biotinylated protein in a baculovirus expression system (Carna Biosciences, Product #08-445-20N). The assay was conducted in black 384-well polystyrene plates in a final reaction volume of 20 μL. JAK2 JH1 (1.5 nM) was incubated with compounds (100 nL serially diluted in DMSO) in the presence of 50 nM fluorescent JAK2-JH1 tracer and 0.5 nM Streptavidin-Tb cryptate (Cisbio Part #610SATLB) in assay buffer (50 mM Tris, pH=7.5, 10 mM MgCl2, 0.01% Brij-35, 0.1% BSA, 1 mM EGTA, 5% Glycerol and 5 mM DTT). Non-specific binding was accessed in the presence of 2 mM ATP. After incubation for 2 hours at 25° C., LanthaScreen signals were read on a PHERAstar FS plate reader (BMG LABTECH). Data was analyzed with IDBS XLfit and GraphPad Prism 5.0 software using a four parameter dose response curve to determine IC50 for each compound.

[3] = target: T3, pseudo-kinase domain (JH2, amino-acids 536-812 with 3 surface mutations W659A, W777A, F794H) of human V617F mutant JAK2 (Homo sapiens, UniProt O60674, F794H/V617F/W659A/W777A); assay: JAK2 LanthaScreen JH2-V617F binding assay; details: 50 nM tracer, 1 hour at 25° C., read-out: JH2 BIND V617F IC50
T3 construct: pseudo-kinase domain (JH2, amino-acids 536-812 with 3 surface mutations W659A, W777A, F794H); His (C); Avi (biotinylated) (C); purchased BPS Bioscience 79498; host or cells: baculovirus expression system
Procedure: Example C. JAK2 LanthaScreen JH2-V617F Binding Assay
as §1, with “JH2-V617F” for “JH2-WT”, “V617F mutant” for “Wild Type”, “#79498).” for “#79463).”, “JH2-V617F (0.26” for “JH2-WT (0.145”

T2 sequence (O60674 826-1132): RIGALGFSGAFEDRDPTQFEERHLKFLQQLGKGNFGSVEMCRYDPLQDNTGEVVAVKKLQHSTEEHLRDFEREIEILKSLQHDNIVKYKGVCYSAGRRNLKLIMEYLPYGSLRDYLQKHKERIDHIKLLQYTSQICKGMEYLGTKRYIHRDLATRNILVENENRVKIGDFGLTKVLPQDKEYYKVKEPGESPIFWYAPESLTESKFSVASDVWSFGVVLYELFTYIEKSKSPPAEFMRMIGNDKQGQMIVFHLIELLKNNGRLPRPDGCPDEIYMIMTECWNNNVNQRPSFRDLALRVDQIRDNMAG
T1 sequence (O60674 536-812 W659A/W777A/F794H): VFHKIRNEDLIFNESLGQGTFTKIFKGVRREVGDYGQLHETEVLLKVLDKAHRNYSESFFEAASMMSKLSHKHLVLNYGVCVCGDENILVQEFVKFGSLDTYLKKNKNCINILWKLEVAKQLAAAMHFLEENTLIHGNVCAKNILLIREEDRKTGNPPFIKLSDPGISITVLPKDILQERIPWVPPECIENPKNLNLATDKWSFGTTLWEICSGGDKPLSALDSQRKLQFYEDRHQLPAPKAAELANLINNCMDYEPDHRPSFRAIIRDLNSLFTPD
T3 sequence (O60674 536-812 V617F/W659A/W777A/F794H): as the sequence (O60674 536-812 W659A/W777A/F794H) above, with V82F counted along it

SMILES: COC(=O)N[C@@H]1CC[C@@H](n2c(=O)[nH]c(=O)c3cnc4[nH]c(-c5cnn(C)c5)c(-c5ccc6c(cnn6C(C)C)c5)c4c32)C1 [Example 39, Methyl ((1R,3R)-3-(9-(1-isopropyl-1H-indazol-5-yl)-8-(1-methyl-1H-pyrazol-4-yl)-2,4-dioxo-2,3,4,7-tetrahydro-1H-pyrrolo[3′,2′:5,6]pyrido[4,3-d]pyrimidin-1-yl)cyclopentyl)carbamate]
- pIC50 [1]: 7.00 to 8.00
- pIC50 [2]: < 6.00
- pIC50 [3]: 7.00 to 8.00

SMILES: COC(=O)N[C@@H]1CC[C@@H](N2C(=O)NCc3cnc4[nH]c(-c5cnn(C)c5)c(-c5ccc6c(cnn6C(C)C)c5)c4c32)C1 [Example 30, Methyl ((1R,3R)-3-(9-(1-isopropyl-1H-indazol-5-yl)-8-(1-methyl-1H-pyrazol-4-yl)-2-oxo-2,3,4,7-tetrahydro-1H-pyrrolo[3′,2′:5,6]pyrido[4,3-d]pyrimidin-1-yl)cyclopentyl) carbamate]
- pIC50 [1]: ≥ 8.00
- pIC50 [2]: < 6.00
- pIC50 [3]: ≥ 8.00

SMILES: CC(=O)N[C@@H]1CC[C@@H](N2C(=O)NCc3cnc4[nH]c(-c5cnn(C)c5)c(-c5ccc6c(cnn6C(C)C)c5)c4c32)C1 [Example 9, N-((1R,3R)-3-(9-(1-Isopropyl-1H-indazol-5-yl)-8-(1-methyl-1H-pyrazol-4-yl)-2-oxo-2,3,4,7-tetrahydro-1H-pyrrolo[3′,2′:5,6]pyrido[4,3-d]pyrimidin-1-yl)cyclopentyl) acetamide]
- pIC50 [1]: 7.00 to 8.00
- pIC50 [2]: < 6.00
- pIC50 [3]: 7.00 to 8.00

SMILES: COC(=O)N[C@H]1C[C@H](N2C(=O)NC(C)c3cnc4[nH]c(-c5cnn(C)c5)c(-c5ccc6c(cnn6C(C)C)c5)c4c32)C1 (mixture of isomers) [Example 38, Methyl ((1r,3r)-3-(9-(1-isopropyl-1H-indazol-5-yl)-4-methyl-8-(1-methyl-1H-pyrazol-4-yl)-2-oxo-2,3,4,7-tetrahydro-1H-pyrrolo[3′,2′:5,6]pyrido[4,3-d]pyrimidin-1-yl)cyclobutyl)carbamate]
- pIC50 [1]: 7.00 to 8.00
- pIC50 [2]: < 6.00
- pIC50 [3]: 7.00 to 8.00

SMILES: COC(=O)N[C@@H]1CC[C@@H](N2C(=O)NCc3cnc4[nH]c(-c5cnn(C)c5)c(-c5ccc6c(cnn6CC6CC6)c5)c4c32)C1 [Example 23, Methyl ((1R,3R)-3-(9-(1-(cyclopropylmethyl)-1H-indazol-5-yl)-8-(1-methyl-1H-pyrazol-4-yl)-2-oxo-2,3,4,7-tetrahydro-1H-pyrrolo[3′,2′:5,6]pyrido[4,3-d]pyrimidin-1-yl)cyclopentyl) carbamate]
- pIC50 [1]: ≥ 8.00
- pIC50 [2]: 6.30 to 7.00
- pIC50 [3]: 7.00 to 8.00

SMILES: COC(=O)N[C@@H]1CC[C@@H](N2C(=O)NCc3cnc4[nH]c(-c5cnn(C)c5)c(-c5ccc6c(cnn6CCF)c5)c4c32)C1 [Example 25, Methyl ((1R,3R)-3-(9-(1-(2-fluoroethyl)-1H-indazol-5-yl)-8-(1-methyl-1H-pyrazol-4-yl)-2-oxo-2,3,4,7-tetrahydro-1H-pyrrolo[3′,2′:5,6]pyrido [4,3-d]pyrimidin-1-yl)cyclopentyl) carbamate]
- pIC50 [1]: ≥ 8.00
- pIC50 [2]: 6.30 to 7.00
- pIC50 [3]: 7.00 to 8.00

SMILES: CC(C)n1ncc2cc(-c3c(-c4cnn(C)c4)[nH]c4ncc5c(c34)N([C@@H]3CC[C@@H](NC(=O)C4CC4)C3)C(=O)NC5)ccc21 [Example 11, N-((1R,3R)-3-(9-(1-Isopropyl-1H-indazol-5-yl)-8-(1-methyl-1H-pyrazol-4-yl)-2-oxo-2,3,4,7-tetrahydro-1H-pyrrolo[3′,2′:5,6]pyrido[4,3-d]pyrimidin-1-yl)cyclopentyl) cyclopropanecarboxamide]
- pIC50 [1]: 7.00 to 8.00
- pIC50 [2]: < 6.00
- pIC50 [3]: 7.00 to 8.00

SMILES: COC(=O)N[C@@H]1CC[C@@H](n2c(=O)nc(N)c3cnc4[nH]c(-c5cnn(C)c5)c(-c5ccc6c(cnn6C(C)C)c5)c4c32)C1 [Example 41, Methyl ((1R,3R)-3-(4-amino-9-(1-isopropyl-1H-indazol-5-yl)-8-(1-methyl-1H-pyrazol-4-yl)-2-oxo-2,7-dihydro-1H-pyrrolo[3′,2′:5,6]pyrido[4,3-d]pyrimidin-1-yl)cyclopentyl)carbamate]
- pIC50 [1]: ≥ 8.00
- pIC50 [2]: 6.00 to 6.30
- pIC50 [3]: ≥ 8.00

Reference: patent publication US20240300948A1, “Heterocyclic Compounds As Kinase Inhibitors” (Incyte Corporation, priority 2023, published 2024)
